Experiments:
[1] = Simulated gastrointestinal digestion (SGF then SIF), HPLC retention of 3,6,7-trimethyllumazine; format: in vitro ADME; conditions: for remaining amount of 3,6,7-trimethyllumazine: pure compound
Experimental: The simulated gastrointestinal digestion was carried out using a static model. The simulated gastric fluid (SGF) and the simulated intestinal fluid (SIF) were prepared in accordance with a global consensus protocol (Minekus et al 2014). The SGF has a pH 3 to mimic the fed-state of the stomach. When mixed with Manuka honey (or a honey solution), the final mixture contains 2000 U/mL of pepsin. The SIF has pH 7 to mimic the fed-state of the small intestine, containing 2 mg/mL of pancreatin (8×USP, or based on a protease activity of 200 U/mL) and 20 mM of porcine bile extract before use.
In the simulated gastric digestion, 2 g of Manuka honey was incubated in 2 mL of SGF at 37° C. under 95 rpm shaking for a period of 2 h (triplicates). At selected time points (0, 30, 60 and 120 min), a predetermined volume (0.1 mL) of the mixture was withdrawn for 3,6,7-trimethyllumazine analysis. The solution for analysis was kept on ice with an addition of 0.1 mL SIF (pH 7) to stop pepsin activity. As a control group, a pure 3,6,7-trimethyllumazine solution was treated in the same way for comparative purposes.
Following the 2 h gastric digestion, the resulting solution was mixed with SIF (pH 7) at a volume ratio of 1:1, to have a final mixture that contains 1 mg/mL of pancreatin and 10 mM of porcine bile extract. This mixture was incubated at 37° C. under 95 rpm shaking for 4 h (triplicates). At selected time points (0, 60, 120 and 240 min), a predetermined volume (0.1 mL) of the mixture was withdrawn for 3,6,7-trimethyllumazine concentration analysis. The pancreatin activity in the withdrawn solution was quenched by adding 5 mmol/L Pefabloc® (Egger et al 2019).
The gastric and intestinal digesta for 3,6,7-trimethyllumazine analysis was treated to remove insoluble fractions (e.g. pancreatin) before HPLC analysis. In brief, all samples were diluted with 0.1% formic acid and then centrifuged at 14,000 rpm for 10 min. Supernatant was taken for analysis. The amount of 3,6,7-trimethyllumazine at different time points was analysed using a reverse-phase HPLC system, which has been previously used to analyse 3,6,7-trimethyllumazine and leptosperin as reported in the literature (Bin Lin et al 2017). In brief, the samples were diluted 5 times in 0.1% v/v formic acid. A Hypersil GOLD column (150×2.1 mm, […]) was used as the stationary phase (25° C.), and the mobile phase will consist of 0.1% formic acid (phase A), and 80:20 acetonitrile: 0.1% formic acid (phase B). […] The signal of 3,6,7-trimethyllumazine was detected at 320 nm.

[2] = tested on: COX-2 protein expression in THP-1 cells; experiment: LPS-induced COX-2 protein expression in THP-1 cells (Western blot); format: cell-based, human; conditions: for COX-2 Relative expression (mean ± SEM): LPS 24 hours, LPS positive control 1.26 ± 0.11, n=6
Experimental: THP-1 cells were seeded in 12-well tissue-culture treated plates at a density of 500,000 cells/well in growth media overnight. […] Cells were washed with cold PBS and lysed in RIPA buffer containing protease inhibitors (Sigma P2714) for 15 minutes on ice. Debris was pelleted by centrifugation at 14,000×g for 15 min and lysate supernatants were frozen at −80° C. for later analysis by western blot.
Western blots for semi-quantitative COX-2 (Abcam ab188183) protein expression were conducted on THP-1 monocyte cells lysed with RIPA buffer containing protease inhibitors. A total of 10 μg protein was loaded onto precast 10% acrylamide gels (BioRad, NZ) then separated by electrophoresis at 120 V at room temperature. […] The membranes were then incubated with the primary antibody that correspond to the protein of interest for 1 h. […] Western blot images were captured with an Amersham™ Imager 600 (GE Healthcare, Chicago, Ill., USA) and densitometry measurement of protein bands was analysed with the accompanying image analysis software.
For analysis of Western blots, densitometry measurements from the proteins of interest were normalised to the densitometry of p-actin for each sample. […] The significance level was set at p≤0.05.

Cc1nc2[nH]c(=O)n(C)c(=O)c2nc1C [3,6,7-trimethyllumazine]
degradation during gastrointestinal digestion ([1]; 50% (w/w) Manuka honey solutions or pure compound directly exposed to digestive media): No significant degradation | initial amount recovered in the digesta ([1]; from four Manuka honey samples, end of 2 h gastric plus 4 h intestinal digestion): ~100% | remaining amount of 3,6,7-trimethyllumazine ([1]; SGF, 0 h, mean ± SD, n=3): 682 ± 90 ng/mL | remaining amount of 3,6,7-trimethyllumazine ([1]; SGF, 0.5 h): 703 ± 57 ng/mL | remaining amount of 3,6,7-trimethyllumazine ([1]; SGF, 1 h): 728 ± 28 ng/mL | remaining amount of 3,6,7-trimethyllumazine ([1]; SGF, 2 h): 688 ± 72 ng/mL | remaining amount of 3,6,7-trimethyllumazine ([1]; SIF, 0 h): 736 ± 6 ng/mL | remaining amount of 3,6,7-trimethyllumazine ([1]; SIF, 1 h): 740 ± 12 ng/mL | remaining amount of 3,6,7-trimethyllumazine ([1]; SIF, 2 h): 732 ± 10 ng/mL | remaining amount of 3,6,7-trimethyllumazine ([1]; SIF, 4 h): 730 ± 3 ng/mL | COX-2 Relative expression (mean ± SEM) ([2]; 12.5 μg/mL): 0.98 ± 0.05 | COX-2 Relative expression (mean ± SEM) ([2]; 25 μg/mL): 0.99 ± 0.07 | reduction in COX-2 protein compared to the LPS treatment ([2]; 50 ug/mL): significant reduction | COX-2 Relative expression (mean ± SEM) ([2]; 50 μg/mL): 0.90 ± 0.09 | COX-2 Relative expression (mean ± SEM) ([2]; 100 μg/mL): 0.96 ± 0.13 | reduction of COX-2 protein expression compared to LPS-stimulated cells ([2]; all doses tested, 12.5-100 μg/mL): 16-23%
